One test addresses T1, BRD7 (Homo sapiens, UniProt Q9NPI1).
T1 construct: Western blot analysis of BRD9 and BRD7 levels after treatment of HeLa cells; endogenous in cells; host or cells: HeLa
T1 sequence (Q9NPI1 1-651): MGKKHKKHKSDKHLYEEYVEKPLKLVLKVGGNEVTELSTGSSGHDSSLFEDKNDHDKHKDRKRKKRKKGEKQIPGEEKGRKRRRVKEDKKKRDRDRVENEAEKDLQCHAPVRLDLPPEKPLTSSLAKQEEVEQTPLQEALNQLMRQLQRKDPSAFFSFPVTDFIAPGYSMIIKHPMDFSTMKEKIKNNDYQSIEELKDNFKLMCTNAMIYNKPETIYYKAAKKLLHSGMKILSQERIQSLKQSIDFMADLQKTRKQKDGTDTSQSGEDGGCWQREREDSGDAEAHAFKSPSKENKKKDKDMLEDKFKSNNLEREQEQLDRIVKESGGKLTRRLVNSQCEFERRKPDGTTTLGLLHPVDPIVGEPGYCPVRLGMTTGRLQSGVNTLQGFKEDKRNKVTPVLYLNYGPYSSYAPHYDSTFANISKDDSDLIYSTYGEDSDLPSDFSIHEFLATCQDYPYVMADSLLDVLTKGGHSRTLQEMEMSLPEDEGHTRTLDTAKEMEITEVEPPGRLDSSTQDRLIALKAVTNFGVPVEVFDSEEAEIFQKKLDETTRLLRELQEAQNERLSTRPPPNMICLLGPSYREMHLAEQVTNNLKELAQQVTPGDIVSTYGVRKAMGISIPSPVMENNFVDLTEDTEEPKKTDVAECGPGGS
Kind of test: Western blot of BRD7 levels in HeLa cells after compound treatment. Type of test: cell-based. The following applies: 1 μM compound; for BRD7 degradation: HeLa cells. The protocol: HeLa and Hek293 cells were seeded at either 0.3 × 10^6 or 0.5 × 10^6 cells per well in 6-well plate in 2 mL of medium. At 80% confluency, cells were treated with compounds at the desired concentration, with final DMSO concentration of 0.1% v/v. Cells were incubated at 37 °C and 5% of CO2 for the desired time before harvesting. For protein extraction from adherent cells, cells were washed twice with DPBS (Gibco) and lysed with RIPA buffer (Sigma-Aldrich), supplemented with cOmplete Mini EDTA-free protease inhibitor cocktail (Roche). Insoluble material was removed by centrifugation at 14 000 rpm for 15 min at 4 °C. Supernatant was collected and protein concentration was quantified by Bradford assay (Thermo Scientific no. 23200, mean of two replicates). For RI-1 cells, (1–1.5) × 10^6 cells/mL were seeded in 6-well plate in 2 mL of medium. The day after, cells were treated with compounds at the desired concentration, with final DMSO concentration of 0.1% v/v. Before harvesting, cells were incubated at 37 °C and 5% CO2 for the desired time. Cells were washed twice with DPBS (Gibco) and lysed with RIPA buffer (Sigma-Aldrich), supplemented with cOmplete Mini EDTA-free protease inhibitor cocktail (Roche). Lysates were sonicated (10 s) and centrifuged at 14 000 rpm for 20 min at 4 °C. Supernatant was collected, and protein concentration was quantified by Bradford assay (mean of two replicates). For EOL-1 and A-204 cell line, 20 000 cells were seeded in 300 μL per well in a 24-well plate and incubated at 37 °C overnight. Compounds were added from DMSO stock solution using a digital dispenser D300 (Tecan), normalizing for added DMSO, and cells were incubated at 37 °C for 18 h. Medium was removed, and cells were washed with PBS and lysed in 80 μL of lysis buffer (1% Triton, 350 mM KCl, 10 mM Tris, pH 7,4, phosphatase-protease inhibitor cocktail (Thermo Scientific no. 1861281), 10 mM DTT, Benzonase 0.5 μL/ml (Novagen no. 70746 10KU, 25 U/μL)) for 30 min on ice before insoluble debris was pelleted by centrifugation.
Proteins were resolved by SDS–PAGE on NuPage 4–12% Bis-Tris Midi Gel (Invitrogen) and transferred to Amersham Protran 0.45 NC nitrocellulose membrane (GE Healthcare) using wet transfer. The membrane was blocked with 5% w/v milk in Tris-buffered saline (TBS) with 0.1% w/v Tween-20. The following primary antibodies at the given concentration were used: anti β-actin (Cell Signaling Technology, 4970S, 13E5) 1:2000, anti-Brd9 (Bethyl A303-781A) 1:1000, anti-Brd7 (Bethyl A302-304A) 1:1000, VHL rabbit Ab (Cell Signaling Technology, no. 68547S) 1:1000, anti-CRBN (Novus Bio, NBP 1-9-1810) 1:1000, anti-actin hFAB rhodamine antibody, Bio-Rad, no. 12004164. Following incubation with horseradish peroxidase-conjugated secondary antibody (Cell Signaling Technology) or IRDye secondary antibody (Licor), bands were developed using Amersham ECL Prime Western blotting detection kit on Amersham Hyperfilm ECL film (Amersham) or ChemiDoc imaging system (Bio-Rad). ImageJ software was used for band quantification, and the last was reported as relative amount as ratio of each protein band relative to the lane’s loading control. Then the values obtained were normalized to 0.1% DMSO vehicle control. Alternatively, protein levels were determined on a WES capillary electrophoresis instrument (Proteinsimple) using a BRD9 antibody (Bethyl A303-781A) and a GAPDH antibody (Abcam no. ab9485) for normalization. DC50 and half-lives were determined by assuming a linear model between the two data points across 50% protein level mark.

The next test concerns the target T2, BRD9 (Homo sapiens, UniProt Q9H8M2).
T2 construct: Western blot analysis of BRD9 and BRD7 levels after treatment of HeLa cells; endogenous in cells; host or cells: HeLa
T2 sequence (Q9H8M2 1-597): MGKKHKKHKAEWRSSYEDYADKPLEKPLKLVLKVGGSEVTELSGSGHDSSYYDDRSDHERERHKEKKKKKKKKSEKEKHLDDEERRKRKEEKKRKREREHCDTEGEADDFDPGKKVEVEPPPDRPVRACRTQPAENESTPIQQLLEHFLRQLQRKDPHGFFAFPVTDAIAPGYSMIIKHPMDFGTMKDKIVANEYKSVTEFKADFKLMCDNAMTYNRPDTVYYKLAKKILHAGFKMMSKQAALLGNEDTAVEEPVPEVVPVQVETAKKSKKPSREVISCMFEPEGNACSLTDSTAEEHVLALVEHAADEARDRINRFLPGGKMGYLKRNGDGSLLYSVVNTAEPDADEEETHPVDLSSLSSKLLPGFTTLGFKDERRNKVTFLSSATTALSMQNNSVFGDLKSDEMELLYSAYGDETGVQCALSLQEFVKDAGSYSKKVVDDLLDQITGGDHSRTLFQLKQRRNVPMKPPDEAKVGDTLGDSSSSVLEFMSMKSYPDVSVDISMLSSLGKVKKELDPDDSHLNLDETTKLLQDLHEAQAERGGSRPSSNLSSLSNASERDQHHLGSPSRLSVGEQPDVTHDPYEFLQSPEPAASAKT
The test is described as follows: Western blot of BRD9 levels in HeLa cells after compound treatment. The following applies: 1 μM compound; for remaining activity at 1 µM: Table 2, % of total protein remaining relative to 0.1% DMSO vehicle, HeLa cell lysates; for BRD9 degradation: HeLa cells. It is filed as cell-based.

SMILES strings stand for the structures. Like-named read-outs stand apart in the source and are kept apart here. Bounds are passed on as bounds.

Consider `COc1cc(-c2cn(C)c(=O)c3cnccc23)cc(OC)c1CN1CCN(CCOCCOCC(=O)N[C@H](C(=O)N2C[C@H](O)C[C@H]2C(=O)NCc2ccc(-c3scnc3C)cc2)C(C)(C)C)CC1` [Compound 5, (2S,4R)-1-((S)-2-(2-(2-(2-(4-(2,6-Dimethoxy-4-(2-methyl-1-oxo-1,2-dihydro-2,7-naphthyridin-4-yl)benzyl)piperazin-1-yl)ethoxy)ethoxy)acetamido)-3,3-dimethylbutanoyl)-4-hydroxy-N-(4-(4-methylthiazol-5-yl)benzyl)pyrrolidine-2-carboxamide], for which the figures for the BRD7 degradation entry at BRD7 (4 h) and on BRD7 (16 h) were “at most 20%” and at most 30%, respectively. Further, the remaining activity at 1 µM on BRD9 (16 h, read-out: BRD9 16 h (%)) came to 89%. Besides, the results for the BRD9 degradation result on BRD9 (4 h) and at BRD9 (16 h) were “at most 20%” and at most 30%, respectively.
Consider `COc1cc(-c2cn(C)c(=O)c3cnccc23)cc(OC)c1CN1CCN(CCOCCOCCOc2cc(-c3scnc3C)ccc2CNC(=O)[C@@H]2C[C@@H](O)CN2C(=O)[C@@H](NC(=O)C2(F)CC2)C(C)(C)C)CC1` [Compound 26, (2S,4R)-N-(2-(2-(2-(2-(4-(2,6-Dimethoxy-4-(2-methyl-1-oxo-1,2-dihydro-2,7-naphthyridin-4-yl)benzyl)piperazin-1-yl)ethoxy)ethoxy)ethoxy)-4-(4-methylthiazol-5-yl)benzyl)-1-((S)-2-(1-fluorocyclopropane-1-carboxamido)-3,3-dimethylbutanoyl)-4-hydroxypyrrolidine-2-carboxamide], for which the remaining activity at 1 µM on BRD7 (4 h, Table 2, % of total protein remaining relative to 0.1% DMSO vehicle, HeLa cell lysates, read-out: BRD7 4 h (%)) amounted to 97%; at BRD9 (4 h, read-out: BRD9 4 h (%)) it was 14%.

The values are drawn from publication PMC6348446 (Journal of Medicinal Chemistry, 2018).
